Assay results taken from patent US20230312556A1, “ARYLAMIDE COMPOUND, PHARMACEUTICAL COMPOSITION COMPRISING SAME, AND PREPARATION METHOD THEREFOR AND USE THEREOF” (SICHUAN KELUN-BIOTECH BIOPHARMACEUTICAL CO., LTD., priority 2020, published 2023).

Tests used:
wild-type BRAF enzyme = wild-type BRAF enzyme (Homo sapiens (Human), UniProt P15056); assay: RAF inhibition assay (TB-PMAP2K1 kit), wild-type BRAF; assay type: biochemical; settings: FLUORESCEIN-MAP2K1 substrate, 60 min reaction
Protocol: Assay protocol: the inhibitory effects of the compounds of the present invention on the wild-type BRAF enzyme, mutant CRAF enzyme (RAF1 Y340D and Y341D) and mutant BRAF enzyme (BRAF-V600E) activity were determined according to the instructions of the TB-PMAP2K1 (PSER217/221) kit (ThermoFisher). Different RAF enzymes and substrates (FLUORESCEIN-MAP2K1) were pre-incubated with test compounds at various concentrations at room temperature for 15 min, and then the adenosine triphosphate (ATP) was added to initiate the reaction. After incubation at room temperature for 60 min, EDTA and Tb-labeled anti-pMAP2K1 [pS217/221] antibody solutions were added, and incubation was performed at room temperature for 60 min before the detection of the fluorescence values of the compounds in each group. With the vehicle group (DMSO) as the negative control and the buffer group (without RAF enzyme) as the blank control, the relative inhibitory activity percentage (i.e., the inhibition rate) of a compound at different concentrations was calculated according to the following formula:
Relative inhibitory activity percentage=1−(Compound group at various concentrations−blank control)/(negative control−blank control)*100%
The relative inhibitory activity percentages of the compounds at different concentrations were plotted against the compound concentrations, the curve was fitted according to a four-parameter model, and the IC50 value was calculated according to the following formula:
y=min+(max−min)/(1+(x/IC50)^(−Hillslope))
wherein y is the relative inhibitory activity percentage, max and min are respectively the maximum and minimum values of the fitted curve, x is the logarithm concentration of the compound, and Hillslope is the slope of the curve.

[1] = test system: human melanoma cell A375 (BRAF-V600E mutation); assay: Cancer cell proliferation inhibition assay, A375; assay type: cell-based; settings: A-375, 72 h incubation, Cell Titer Glo
Source text: (§1) The inhibitory effects of the compounds of the present invention on cancer cell proliferation were further evaluated by testing the effects of the compounds of the present invention on the growth of cancer cells.
(§2) In this example, human melanoma cell A375 (BRAF-V600E mutation, purchased from the Cell Bank of the Chinese Academy of Sciences) and human hepatocellular carcinoma cell HepG2 (NRAS-Q61K mutation, purchased from ATCC, USA) were employed.
(§3) In this example, the test compounds at various concentrations (100000 nM, 30000 nM, 10000 nM, 3000 nM, 1000 nM, 300 nM, 100 nM, 30 nM, 10 nM) were added to the above cells, and the incubation was performed for 72 h. The inhibitory activity of the compounds was tested by measuring ATP in living cells using the Cell Titer Glo Kit (Promega).
(§4) The IC50 values of the compounds of the present invention for each tested cell were determined, and the test results are as follows: […]

[2] = test system: human hepatocellular carcinoma cell HepG2 (NRAS-Q61K mutation); assay: Cancer cell proliferation inhibition assay, HepG2; assay type: cell-based; settings: 72 h incubation, Cell Titer Glo
Source text: as §1, §2, §3, §4

Sequence of wild-type BRAF enzyme (P15056 whole entry): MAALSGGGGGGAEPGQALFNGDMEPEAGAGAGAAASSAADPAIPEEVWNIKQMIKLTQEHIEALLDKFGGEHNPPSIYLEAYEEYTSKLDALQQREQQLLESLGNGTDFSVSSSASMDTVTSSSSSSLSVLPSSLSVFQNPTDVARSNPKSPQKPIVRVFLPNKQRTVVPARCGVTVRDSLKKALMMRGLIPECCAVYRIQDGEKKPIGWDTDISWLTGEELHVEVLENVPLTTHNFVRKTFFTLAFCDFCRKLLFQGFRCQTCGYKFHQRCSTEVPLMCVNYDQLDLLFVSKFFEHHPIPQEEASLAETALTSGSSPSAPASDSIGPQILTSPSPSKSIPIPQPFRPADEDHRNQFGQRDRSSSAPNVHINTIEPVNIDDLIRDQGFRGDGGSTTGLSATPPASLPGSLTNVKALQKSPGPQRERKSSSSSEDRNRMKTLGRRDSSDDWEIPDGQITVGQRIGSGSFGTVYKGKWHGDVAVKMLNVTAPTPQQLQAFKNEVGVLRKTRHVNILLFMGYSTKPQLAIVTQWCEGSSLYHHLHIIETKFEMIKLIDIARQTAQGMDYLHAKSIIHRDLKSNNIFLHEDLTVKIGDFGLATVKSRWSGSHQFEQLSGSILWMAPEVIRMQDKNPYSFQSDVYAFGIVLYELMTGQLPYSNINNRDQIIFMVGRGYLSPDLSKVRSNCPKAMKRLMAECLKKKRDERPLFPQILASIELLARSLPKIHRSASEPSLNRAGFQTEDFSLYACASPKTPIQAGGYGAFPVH

SMILES | IC50 (wild-type BRAF enzyme) [nM] | IC50 [1] [nM] | IC50 [2] [nM]
Cc1ccc2c(C(O)c3ccc(Cl)cc3F)nccc2c1NC(=O)c1csc2c(N)ncnc12 (stereo not drawn) [Compound 28, 4-amino-N-(1-((4-chloro-2-fluorophenyl)(hydroxy)methyl)-6-methylisoquinolin-5-yl)thieno[3,2-d]pyrimidine-7-carboxamide] | 9.43 ± 0.76 | 98.8 ± 10.2 | –
Cc1ccc2c(Nc3cccc(Cl)c3F)nccc2c1NC(=O)c1cc(F)cc2c(N)ncnc12 [Compound 46, 4-amino-N-(1-((3-chloro-2-fluorophenyl)amino)-6-methylisoquinolin-5-yl)-6-fluoroquinazoline-8-carboxamide] | 79.3 ± 19.5 | 89.3 ± 5.2 | 74.4 ± 7.91
Cc1ccc2c(Nc3ccc(F)c(Cl)c3)nccc2c1NC(=O)c1cnc2c(N)ncnn12 [Compound 58, 4-amino-N-(1-((3-chloro-4-fluorophenyl)amino)-6-methylisoquinolin-5-yl)imidazo[2,1-f][1,2,4]triazine-7-carboxamide] | 10.8 ± 1.09 | – | 37.6 ± 3.34
Cc1ccc2c(Nc3cccc(C(F)(F)F)c3)nccc2c1NC(=O)c1cnc2c(N)ncnn12 [Compound 43, 4-amino-N-(6-methyl-1-((3-(trifluoromethyl)phenyl)amino)isoquinolin-5-yl)imidazo[2,1-f][1,2,4]triazine-7-carboxamide] | 20.7 ± 5.71 | 61.7 ± 3 | 32.9 ± 3.3
Cc1ccc2c(Nc3cc(F)c(F)cc3F)nccc2c1NC(=O)c1cccc2c(N)ncnc12 [Compound 90, 4-amino-N-(6-methyl-1-((2,4,5-trifluorophenyl)amino)isoquinolin-5-yl)quinazoline-8-carboxamide] | 26.5 ± 2.18 | 74 ± 6.3 | 118 ± 12.6
Cc1ccc2c(Nc3ccc(Cl)cc3F)nccc2c1NC(=O)c1cccc2c(N)ncnc12 [Compound 41, 4-amino-N-(1-((4-chloro-2-fluorophenyl)amino)-6-methylisoquinolin-5-yl)quinazoline-8-carboxamide] | 31.8 ± 5.36 | 22.2 ± 1.86 | 55.6 ± 4.8
Cc1ccc2c(C(C)Oc3ccccc3)nccc2c1NC(=O)c1csc2c(N)ncnc12 (stereo not drawn) [Compound 35, 4-amino-N-(6-methyl-1-(1-phenoxyethyl)isoquinolin-5-yl)thieno[3,2-d]pyrimidine-7-carboxamide] | 125 ± 3.5 | – | –
Cc1ccc2c(Nc3ccc(N(C)C)nc3)nccc2c1NC(=O)c1cccc2c(N)ncnc12 [Compound 59, 4-amino-N-(1-((6-(dimethylamino)pyridin-3-yl)amino)-6-methylisoquinolin-5-yl)quinazoline-8-carboxamide] | – | 85 ± 5.2 | 211 ± 16.6
COc1ccc(Nc2nccc3c(NC(=O)c4cnc5c(N)ncnn45)c(C)ccc23)c(F)c1 [Compound 61, 4-amino-N-(1-((2-fluoro-4-methoxyphenyl)amino)-6-methylisoquinolin-5-yl)imidazo[2,1-f][1,2,4]triazine-7-carboxamide] | – | 141 ± 4.88 | 21.3 ± 4.88
Cc1ccc2c(Nc3ccc(Cl)c(F)c3F)nccc2c1NC(=O)c1cnc2c(N)ncnn12 [Compound 70, 4-amino-N-(1-((4-chloro-2,3-difluorophenyl)amino)-6-methylisoquinolin-5-yl)imidazo[2,1-f][1,2,4]triazine-7-carboxamide] | – | 190 ± 23.8 | 59.9 ± 6.8
Cc1ccc2c(Nc3cccc(Cl)c3F)nccc2c1NC(=O)c1cncc2c(N)ncnc12 [Compound 69, 4-amino-N-(1-((3-chloro-2-fluorophenyl)amino)-6-methylisoquinolin-5-yl)pyrido[4,3-d]pyrimidine-8-carboxamide] | – | 94.6 ± 4 | 49.6 ± 9.7
Cc1ccc2c(Nc3cccc(Cl)c3F)nccc2c1NC(=O)c1cc(N2CCOCC2)cc2c(N)ncnc12 [Compound 53, 4-amino-N-(1-((3-chloro-2-fluorophenyl)amino)-6-methylisoquinolin-5-yl)-6-morpholinoquinazoline-8-carboxamide] | – | 77.7 ± 2.3 | 113 ± 3.35
COc1ccc(Nc2nccc3c(NC(=O)c4cccc5c(N)ncnc45)c(C)ccc23)cn1 [Compound 75, 4-amino-N-(1-((6-methoxypyridin-3-yl)amino)-6-methylisoquinolin-5-yl)quinazoline-8-carboxamide] | – | 67.7 ± 15.1 | 34 ± 7.6
Cc1ccc2c(Nc3cccc(Cl)c3F)nccc2c1NC(=O)c1nccc2c(N)ncnc12 [Compound 66, 4-amino-N-(1-((3-chloro-2-fluorophenyl)amino)-6-methylisoquinolin-5-yl)pyrido[3,4-d]pyrimidine-8-carboxamide] | – | 166 ± 6.1 | 46.1 ± 9.6
COc1ccc(Nc2nccc3c(NC(=O)c4cccc5c(N)ncnc45)c(C)ccc23)cc1OC [Compound 68, 4-amino-N-(1-((3,4-dimethoxyphenyl)amino)-6-methylisoquinolin-5-yl)quinazoline-8-carboxamide] | – | 104 ± 20.6 | 109 ± 12.2
CC(=O)c1ccc(Nc2nccc3c(NC(=O)c4cccc5c(N)ncnc45)c(C)ccc23)cc1 [Compound 63, N-(1-((4-acetylphenyl)amino)-6-methylisoquinolin-5-yl)-4-aminoquinazoline-8-carboxamide] | – | 46.3 ± 1.79 | 28.6 ± 2.7
CCOc1ccc(Nc2nccc3c(NC(=O)c4cccc5c(N)ncnc45)c(C)ccc23)c(F)c1 [Compound 74, 4-amino-N-(1-((4-ethoxy-2-fluorophenyl)amino)-6-methylisoquinolin-5-yl)quinazoline-8-carboxamide] | – | 62.7 ± 12.5 | 62.3 ± 9.2
Cc1ccc2c(Nc3ccccc3F)nccc2c1NC(=O)c1cccc2c(N)ncnc12 [Compound 39, 4-amino-N-(1-((2-fluorophenyl)amino)-6-methylisoquinolin-5-yl)quinazoline-8-carboxamide] | 8.44 ± 2.46 | – | 27.1 ± 2.5
Cc1ccc2c(Nc3cccc(Cl)c3F)nccc2c1NC(=O)c1cc(OCCO)cc2c(N)ncnc12 [Compound 86, 4-amino-N-(1-((3-chloro-2-fluorophenyl)amino)-6-methylisoquinolin-5-yl)-6-(2-hydroxyethoxy)quinazoline-8-carboxamide] | – | 60.6 ± 2.8 | 48 ± 5.36
Cc1ccc2c(Nc3ccc(Cl)c(CN(C)C)c3)nccc2c1NC(=O)c1cccc2c(N)ncnc12 [Compound 64, 4-amino-N-(1-((4-chloro-3-((dimethylamino)methyl)phenyl)amino)-6-methylisoquinolin-5-yl)quinazoline-8-carboxamide] | – | 70.3 ± 8.5 | 75.2 ± 6.9
COc1ccc(Nc2nccc3c(NC(=O)c4cnc5c(N)ncnn45)c(C)ccc23)cc1Cl [Compound 56, 4-amino-N-(1-((3-chloro-4-methoxyphenyl)amino)-6-methylisoquinolin-5-yl)imidazo[2,1-f][1,2,4]triazine-7-carboxamide] | – | 67 ± 7.3 | 22.2 ± 2.9
Cc1ccc2c(Nc3cccc(Cl)c3F)nccc2c1NC(=O)c1cc(O)cc2c(N)ncnc12 [Compound 76, 4-amino-N-(1-((3-chloro-2-fluorophenyl)amino)-6-methylisoquinolin-5-yl)-6-hydroxyquinazoline-8-carboxamide] | – | 202 ± 5.74 | 147 ± 19.2
Cc1ccc2c(Nc3cccc(Cl)c3F)nccc2c1NC(=O)c1cnc2c(N)ncnn12 [Compound 30, 4-amino-N-(1-((3-chloro-2-fluorophenyl)amino)-6-methylisoquinolin-5-yl)imidazo[2,1-f][1,2,4]triazine-7-carboxamide] | – | 89.3 ± 11.3 | 13.3 ± 0.9
Cc1ccc2c(Nc3ccc4c(c3)OCCO4)nccc2c1NC(=O)c1cccc2c(N)ncnc12 [Compound 77, 4-amino-N-(1-((2,3-dihydrobenzo[b][1,4]dioxin-6-yl)amino)-6-methylisoquinolin-5-yl)quinazoline-8-carboxamide] | – | 31.6 ± 7.42 | 51.4 ± 8.5
Cc1ccc2c(C(=O)c3cccc(C(F)(F)F)c3)nccc2c1NC(=O)c1csc2c(N)ncnc12 [Compound 22, 4-amino-N-(6-methyl-1-(3-(trifluoromethyl)benzoyl)isoquinolin-5-yl)thieno[3,2-d]pyrimidine-7-carboxamide] | 50.2 ± 8.47 | – | –
Cc1ccc2c(C(O)c3cccc(C(F)(F)F)c3)nccc2c1NC(=O)c1csc2c(N)ncnc12 (stereo not drawn) [Compound 23, 4-amino-N-(1-(hydroxy(3-(trifluoromethyl)phenyl)methyl)-6-methylisoquinolin-5-yl)thieno[3,2-d]pyrimidine-7-carboxamide] | 51.4 ± 1.64 | 64.7 ± 4.22 | –
